{"source": "patent US12275953B2", "about": "“Methods for screening host cells expressing target proteins” (Industrial Technology Research Institute, priority 2020, dated 2025)", "key": {"[1]": {"system": "CHOK1 cell lines Fth1-WT and Fth1-KO transfected with pCDNA3.1-CMV-cgFth1-p2A-EGFP", "assay": "Screening efficiency of transfected cells under iron ion-induced ferroptosis (Celigo Image Cytometer)", "format": "cell-based, Chinese hamster", "procedure": "After 24 hours of adherent culture in F12 medium (Ham's F-12 Nutrient Mix, Gibco) containing 10% FBS, the transfection of vector (pCDNA3.1-CMV-cgFth1-p2A-EGFP) was carried out with Lipofectamine 3000 (Thermo Fisher Scientific Inc.) to promote the overexpression of FTH1 gene. 24 hours after the DNA transfection of the vectors, 125 μM ferrous sulfate (FeSO4) was added to the cell culture broth, and at the same time different doses of ferroptosis inducers FINO2 (0 μM to 20 μM) were added to induce ferroptosis. After 3 days (72 hours) of action, the Celigo Image Cytometer (Nexcelom) was used to analyze the cell morphology, viability, cell count, fluorescent cell count, and fluorescence quantification, thereby estimating the screening efficiency."}, "HEK293T cell line": {"system": "HEK293T cell line", "conditions": "125 μM FeSO4, 72 hours, cells transfected with pCDNA3.1-CMV-cgFth1-p2A-EGFP vs Mock vector", "procedure": "(§1) After 24 hours of adherent culture in F12 medium (Ham's F-12 Nutrient Mix, Gibco) containing 10% FBS, the transfection of vectors (pCDNA3.1-CMV-cgFth1-p2A-EGFP and pCDNA3.1-CMV-p2A-EGFP_Mock, which served as a blank control group) were carried out with Lipofectamine 3000 (Thermo Fisher Scientific Inc.) to promote the overexpression of FTH1 gene. 24 hours after the DNA transfection of the vectors, 125 μM ferrous sulfate (FeSO4) was added to the cell culture broth, and at the same time different doses of ferroptosis inducers FINO2 (0 μM to 20 μM) were added to induce ferroptosis. After 3 days (72 hours) of action, the Celigo Image Cytometer (Nexcelom) was used to analyze the fluorescence cell count and fluorescence quantification, thereby estimating the screening efficiency."}, "VERO cell line": {"system": "VERO cell line", "conditions": "125 μM FeSO4, 72 hours, cells transfected with pCDNA3.1-CMV-cgFth1-p2A-EGFP vs Mock vector", "procedure": "as §1"}, "[2]": {"system": "CHOK1 cell lines Fth1_WT and Fth1_KO"}, "[3]": {"system": "CHOK1 cell lines Fth1_WT and Fth1_KO", "assay": "Cytotoxicity test of screening medium formulations (AlamarBlue cell viability)", "conditions": "FINO2 and fatty acid PA together, without the addition of iron ions FeSO4"}, "[4]": {"system": "SKBR3 breast cancer cells rich in HER2 antigen", "assay": "ADCC biological activity reporter gene assay (Jurkat-hFcγRIIIa-NFAT effector cells, luciferase)", "format": "cell-based", "conditions": "compared with the validated purified Anti-HER2 IgG1 (h4D5) recombinant antibody protein; 24 hours of reaction", "procedure": "Jurkat-hFcγRIIIa-NFAT gene transgenic cells was used as effector cells and SKBR3 breast cancer cells rich in HER2 antigen was used as target cells in ADCC biological activity reporter gene detection system (Promega, #G9790).\nFirst, 100 μl of SKBR3 cells with a cell density of 10^5/ml were added to the 96-well culture plate, placed at 37° C. for overnight culture to allow the cells to adhere and grow, the supernatant was removed the next day, and 25 μl of serially diluted recombinant antibodies prepared in […] medium containing 0.5% fetal bovine serum were added. Next, 25 μl of lurkat-hFcγRIIIa-NFAT effector cells with a cell density of 6×10^6/ml were added."}}, "note": "Where two headings read alike, the source gives them in different places."}
{"compound": "CC1(CCO)CC2(CCC(C(C)(C)C)CC2)OO1", "note": "(centres unmarked) [FINO2]", "values": [{"measurement": "relation of increased dose to overall cell viability", "setting": "[1]; FINO2 0 μM to 20 μM with 125 μM FeSO4, 72 hours", "value": "negatively correlated with overall cell viability"}, {"measurement": "cell screening rate", "setting": "[1]; high dose of ferroptosis inducer (>15 μM), 125 μM FeSO4, 72 hours", "value": 100, "unit": "%"}, {"measurement": "concentration producing significant screening effects", "setting": "HEK293T cell line", "value": 1.25, "unit": "µM"}, {"measurement": "concentration producing significant screening effects", "setting": "VERO cell line", "value": 5, "unit": "µM"}, {"measurement": "cytotoxicity", "setting": "[2]", "value": "did not cause cytotoxicity"}]}
{"compound": "CCCCCCCCCCCCCCCC(=O)O", "note": "[PA, Palmitic acid]", "values": [{"measurement": "cytotoxicity", "setting": "[3]", "value": "did not cause cytotoxicity"}]}
{"compound": "V2: Anti-HER2 IgG1 (h4D5) recombinant antibody produced by expression vector pBudCE4.1-CMV-GOI1-SV40-cgFth1-EF1α-GOI2", "values": [{"measurement": "ADCC effect", "setting": "[4]", "value": "could obviously induce ADCC"}]}
{"compound": "V3: Anti-HER2 IgG1 (h4D5) recombinant antibody from cell line C8, vector pcDNA3.1-CMV-GOI1-furin-p2A-GOI2-IRES-cgFth1, without adding iron ions", "values": [{"measurement": "ADCC effect", "setting": "[4]", "value": "could obviously induce ADCC"}]}
